Results as given in patent US20240226123A9, “USE OF CANNABIDIVARIN IN THE TREATMENT OF SEIZURES ASSOCIATED WITH CANINE EPILEPSY” (GW Research Limited, priority 2021, published 2024).

Legend:
[1] = tested on: spike-and-wave discharges induced by gamma-butyrolactone (GBL); assay: GBL induced absence seizure model, quantified EEG (spectral power, cortex); format: in vivo, beagle dogs
Protocol: The experiment was carried out on nine male non-naïve beagle dogs, weighing 9-15 kg. All animals were housed in a box or in a kennel under natural lighting with restricted access to food (approx. 300 g/animal/day) and unlimited access to water.
Dogs were implanted with an Emka Technologies telemetric device. Following an incision in the lateral neck region, the telemetric device was introduced into a pouch under the skin. The positive and negative biopotential electrodes were coiled into a loop and tunnelled subcutaneously to protrude into the opened scalp incision. The skin incisions then were closed.
Following a sagittal incision of the scalp, the top of the skull was prepared for implantation. The incision was performed between bregma and lambda sutures in order to place electrodes over the parietal cortex. Three small holes were drilled into the skull, on the right hemisphere. The tips of the electrodes were then pushed through the holes through the skull onto the dura mater. The electrodes were connected to small plugs, placed into a connector and the whole assembly was secured on skull with dental cement. The skin incisions then were closed using aseptic chirurgical thread.
Approximately 2 weeks later, the dogs were placed in a sling for the experiment.
For EEG recording, a telemetry receiver was located nearby the animal to record EEG.
All generated data was acquired and analysed using the EMKA Technologies software. The quality of the EEG signals was checked before launching EEG recording.
Before the experiment, EEG signals were recorded during a few minutes in baseline conditions to check the quality of the signals.
The baseline EEG recording was done for each dog, one day before the test session and lasted 40 minutes. Baseline and test sessions were done at the same time of the day for each dog.
EEG signals were recorded during 40 minutes to evaluate spike-and-wave discharges. The latency to observe spike-and-wave discharges was determined off-line on EEG signals.
The differential outputs between the 2 electrodes at each implantation site were digitized on-line at a sampling rate of 500 Hz/channel and the data stored in raw data files.
EEG was quantitatively analysed by spectral analysis using a Fast Fourier Transform algorithm. Spectra were calculated from epochs of 4.1-second duration. The mean total spectral power between 1.5 and 64 Hz and the power in 6 sub-frequency bands per brain structure recorded (1.5-4 (delta), 5-8 (theta), 8.5-12.5 (alpha), 13-35 (beta), 36-64 (gamma) and 3-6 Hz) was calculated on four 10-minute periods (from 0 to 10, 10 to 20, 20 to 30 and 30 to 40 minutes during baseline and test sessions).
Before being submitted to further analysis, all spectra containing recording artefacts found on visual inspection of the EEG traces were eliminated. Then the averages of 10-minute intervals of the verified individual spectra were saved into data files which then were transferred into Excel calculation sheets.

[2] = tested on: pilocarpine-induced seizures; conditions: rodent seizure models; cited from earlier work
[3] = tested on: postnatal day 10 and 20 rats; conditions: cited from earlier work
focal seizures in humans = conditions: Phase II, placebo group similar; cited from earlier work
[4] = Adverse effects observed in dogs of the GBL model studies
[5] = CBDV 100 mg/kg p.o. 4 hours before GBL, across all four time periods

SMILES | power of high frequency bands (beta and gamma) [1, 5] | spectral power of lower frequency bands (delta, theta and alpha) [1, 5] | spectral power on delta frequency bands ([1]; CBDV 100 mg/kg p.o. 4 hours before GBL, time-interval 30-40 minutes, vs vehicle controls, p<0.05) | spectral power on 3-6 Hz frequency band ([1]; CBDV 100 mg/kg p.o., following GBL administration, vs vehicle control) | effect in pilocarpine-induced seizures [2] | anticonvulsant action [3] | reductions in focal seizures (focal seizures in humans) | power of high frequency bands (beta and gamma) ([1]; Diazepam 2 mg/kg p.o., across all four time periods) | adverse effects observed ([4]; diazepam 4 mg/kg, three dogs, during the test, after GBL administration) | adverse effects observed ([4]; diazepam 6 mg/kg, two dogs, GBL could not be administered)
C=C(C)[C@@H]1CCC(C)=C[C@H]1c1c(O)cc(CCC)cc1O [CBDV, cannabidivarin] | increased | decreased | significantly decreased | lowered | not found to have any effect | age and model-specific profile of anticonvulsant action | approximately 40% | – | – | –
CN1C(=O)CN=C(c2ccccc2)c2cc(Cl)ccc21 [Diazepam] | – | – | – | – | – | – | – | increased | Motor incoordination and psychotic effects (stereotypies, involuntary movements, barks) | the symptoms were stronger
